Test results taken from patent publication US20240199584A1, “KRAS INHIBITORS” (Bristol-Myers Squibb Company, priority 2022, published 2024).
Where two headings read alike, the source gives them in different places. Each block holds one compound with its values, some of them ahead of it.

Key:
[1] = target: T1, KRAS G12D (Homo sapiens, UniProt P01116, G12D); test: biochemical
[2] = target: T1, KRAS G12D; test: biochemical; remark: listed apart in the source
[3] = target: T2, KRAS G12A (Homo sapiens, UniProt P01116, G12A); test: Cellular KRAS:RAF Disruption Assay (NanoBRET), KRAS G12A; format: cell-based; details: HEK293 T cells co-expressing RAF1 and KRAS G12A, 24 hours; read-out: RAS::RAF binding via NanoBRET IC50, KRAS G12A
T2 construct: expressed in transfected cells
T2 sequence (P01116 1-188 isoform P01116-2 G12A): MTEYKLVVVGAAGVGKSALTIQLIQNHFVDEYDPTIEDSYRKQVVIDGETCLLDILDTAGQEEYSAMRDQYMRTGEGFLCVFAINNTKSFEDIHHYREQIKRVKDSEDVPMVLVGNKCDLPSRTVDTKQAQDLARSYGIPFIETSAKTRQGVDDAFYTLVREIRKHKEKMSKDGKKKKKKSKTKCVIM
Experimental: (§1) Cellular KRAS:RAF Disruption Assay
(§2) Stable cell lines (HEK293 T) were generated to co-express RAF1 and mutant or wild type KRAS, as indicated, using the BiBRET vector (Promega). Engineered cell lines were suspended in media (OptiMEM, […]), plated in 384-well plates (8000 cells/well), and allowed to rest for 1.5 hours. Cells were treated with compounds for 24 hours, and NanoBRET NanoGlo substrate (Promega) was added per the manufacturer's instructions.

[4] = target: T3, KRAS G12C (Homo sapiens, UniProt P01116, G12C); test: Cellular KRAS:RAF Disruption Assay (NanoBRET), KRAS G12C; format: cell-based; details: HEK293 T cells co-expressing RAF1 and KRAS G12C, 24 hours; read-out: RAS::RAF binding via NanoBRET IC50, KRAS G12C
T3 construct: expressed in transfected cells
T3 sequence (P01116 1-188 isoform P01116-2 G12C): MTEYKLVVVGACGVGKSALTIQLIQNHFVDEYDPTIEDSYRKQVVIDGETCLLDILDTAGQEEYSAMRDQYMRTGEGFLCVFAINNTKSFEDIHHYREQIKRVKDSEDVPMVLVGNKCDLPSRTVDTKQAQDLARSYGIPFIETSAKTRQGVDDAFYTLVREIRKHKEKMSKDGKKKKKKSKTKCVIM
Experimental: as §1, §2

[5] = target: T4, KRAS G12V (Homo sapiens, UniProt P01116, G12V); test: Cellular KRAS:RAF Disruption Assay (NanoBRET), KRAS G12V; format: cell-based; details: HEK293 T cells co-expressing RAF1 and KRAS G12V, 24 hours; read-out: RAS::RAF binding via NanoBRET IC50, KRAS G12V
T4 construct: expressed in transfected cells
T4 sequence (P01116 1-188 isoform P01116-2 G12V): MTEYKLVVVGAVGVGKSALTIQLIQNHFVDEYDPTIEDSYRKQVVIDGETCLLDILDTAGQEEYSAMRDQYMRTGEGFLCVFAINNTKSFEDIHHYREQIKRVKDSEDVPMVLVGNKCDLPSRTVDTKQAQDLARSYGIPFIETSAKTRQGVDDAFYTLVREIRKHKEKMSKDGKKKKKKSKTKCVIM
Experimental: as §1, §2

[6] = target: T5, KRAS WT (Homo sapiens, UniProt P01116); test: Cellular KRAS:RAF Disruption Assay (NanoBRET), KRAS WT; format: cell-based; details: HEK293 T cells co-expressing RAF1 and wild type KRAS, 24 hours; read-out: RAS::RAF binding via NanoBRET IC50, KRAS WT
T5 construct: expressed in transfected cells
T5 sequence (P01116 1-188 isoform P01116-2): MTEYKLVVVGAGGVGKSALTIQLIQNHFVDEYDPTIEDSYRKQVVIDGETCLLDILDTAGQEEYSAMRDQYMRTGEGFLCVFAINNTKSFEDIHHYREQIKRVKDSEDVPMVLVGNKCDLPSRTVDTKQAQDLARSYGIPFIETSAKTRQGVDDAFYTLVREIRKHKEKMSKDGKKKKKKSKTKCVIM
Experimental: as §1, §2

T1 sequence (P01116 1-188 isoform P01116-2 G12D): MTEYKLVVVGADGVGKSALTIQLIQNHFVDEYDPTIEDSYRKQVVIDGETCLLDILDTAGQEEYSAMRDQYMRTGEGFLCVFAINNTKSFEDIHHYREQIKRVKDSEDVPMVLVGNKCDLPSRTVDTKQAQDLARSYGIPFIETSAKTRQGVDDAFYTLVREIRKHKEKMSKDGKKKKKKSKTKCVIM

IC50 [2]: 6 nM
Compound: C#Cc1c(F)ccc2cc(O)cc(-c3nc(OC)c4c(N5CCC[C@](O)(CF)C5)nc(OC[C@]56CCC[C@H]5N(C)CCC6)nc4c3F)c12 [Example 9-26, (R)-1-(7-(8-ethynyl-7-fluoro-3-hydroxynaphthalen-1-yl)-8-fluoro-5-methoxy-2-(((4aS,7aR)-1-methyloctahydro-4aH-cyclopenta[b]pyridin-4a-yl)methoxy)pyrido[4,3-d]pyrimidin-4-yl)-3-(fluoromethyl)piperidin-3-ol]

IC50 [2]: 6 nM
Compound: C#Cc1c(F)ccc2cc(O)cc(-c3nc(OC)c4c(N5CCOC6CC65)nc(OC[C@@]56CCCN5C[C@H](F)C6)nc4c3F)c12 (stereo partly drawn) [Example 9-40, 4-(4-(2-oxa-5-azabicyclo[4.1.0]heptan-5-yl)-8-fluoro-2-(((2R,7aS)-2-fluorotetrahydro-1H-pyrrolizin-7a(5H)-yl)methoxy)-5-methoxypyrido[4,3-d]pyrimidin-7-yl)-5-ethynyl-6-fluoronaphthalen-2-ol]

IC50 [1]: 1060 nM | IC50 [2]: < 2 nM
Compound: CN1CCC[C@@]2(COc3nc(N4CCC[C@@](C)(O)C4)c4cnc(-c5cc(O)ccc5C5CCC5)c(F)c4n3)CCC[C@@H]12 [Example 10-3, (3R)-1-(2-{[(4aS,7aR)-1-methyl-octahydro-1H-cyclopenta[b]pyridin-4a-yl]methoxy}-7-(2-cyclobutyl-5-hydroxyphenyl)-8-fluoropyrido[4,3-d]pyrimidin-4-yl)-3-methylpiperidin-3-ol]

IC50 [1]: > 100000 nM | IC50 [2]: > 100000 nM
Compound: CN1CCC[C@@]2(COc3nc(N4CCC[C@@](C)(O)C4)c4cnc(-c5cn(C(F)F)c(=O)c6ccccc56)c(F)c4n3)CCC[C@@H]12 [Example 10-6, 4-(2-{[(4aS,7aR)-1-methyl-octahydro-1H-cyclopenta[b]pyridin-4a-yl]methoxy}-8-fluro-4-[(3R)-3-hydroxy-3-methylpiperidin-1-yl]pyrido[4,3-d]pyrimidin-7-yl)-2-(difluoromethyl)-1,2-dihydroisoquinolin-1-one]

IC50 [1]: > 100000 nM | IC50 [2]: > 100000 nM
Compound: CN1CCC[C@@]2(COc3nc(N4CCC[C@@](C)(O)C4)c4cnc(-c5cnc(OC(F)F)c6ccccc56)c(F)c4n3)CCC[C@@H]12 [Example 10-7, (3R)-1-(2-{[(4aS,7aR)-1-methyl-octahydro-1H-cyclopenta[b]pyridin-4a-yl]methoxy}-7-[1-(difluoromethoxy)isoquinolin-4-yl]-8-fluoropyrido[4,3-d]pyrimidin-4-yl)-3-methylpiperidin-3-ol]

IC50 [1]: > 100000 nM | IC50 [2]: > 100000 nM
Compound: CN1CCC[C@@]2(COc3nc(N4CCC[C@@](C)(O)C4)c4cnc(-c5cn(C(F)F)c(=O)c6ccc(C(F)(F)F)cc56)c(F)c4n3)CCC[C@@H]12 [Example 10-8, 4-(2-{[(4aS,7aR)-1-methyl-octahydro-1H-cyclopenta[b]pyridin-4a-yl]methoxy}-8-fluoro-4-[(3R)-3-hydroxy-3-methylpiperidin-1-yl]pyrido[4,3-d]pyrimidin-7-yl)-2-(difluoromethyl)-6-(trifluoromethyl)-1,2-dihydroisoquinolin-1-one]

The next lines start with the compound.

Compound: C#Cc1c(F)ccc2cc(O)cc(-c3ncc4c(N5CCCC(C#N)C5)nc(OC[C@@]56CCCN5C[C@H](F)C6)nc4c3F)c12 (single isomer, unassigned) [Example 1-23]
IC50 [1]: 2 nM

Compound: C#Cc1c(F)ccc2cc(O)cc(-c3ncc4c(N5CCCC(C#N)C5)nc(OCC5(CN6CCC(F)CC6)CC5)nc4c3F)c12 (single isomer, unassigned) [Example 1-44, 1-[7-(8-ethynyl-7-fluoro-3-hydroxynaphthalen-1-yl)-8-fluoro-2-({1-[(4-fluoropiperidin-1-yl)methyl]cyclopropyl}methoxy)pyrido [4,3-d]pyrimidin-4-yl]piperidine-3-carbonitrile]
IC50 [1]: > 100000 nM | IC50 [2]: 19100 nM

Compound: C#Cc1c(F)ccc2cc(O)cc(-c3ncc4c(N5CCCC(CO)C5)nc(OC[C@@]56CCCN5C[C@H](F)C6)nc4c3F)c12 (single isomer, unassigned) [Example 1-63]
IC50 [1]: ≥ 100000 nM | IC50 [2]: 12800 nM

Compound: C#Cc1c(F)ccc2cc(O)cc(-c3ncc4c(N5CCCC(C)(O)C5)nc(OC[C@]56CCC[C@H]5N(C)CCC6)nc4c3F)c12 (single isomer, unassigned) [Example 1-89]
IC50 [3]: 4.8 nM | IC50 [4]: 9.3 nM | IC50 [5]: 20.1 nM | IC50 [6]: 8.5 nM

Compound: C#Cc1c(F)ccc2cc(O)cc(-c3ncc4c(N5CCOC6CC65)nc(OC[C@]56CCC[C@H]5N(C)CCC6)nc4c3F)c12 (single isomer, unassigned) [Example 1-99]
IC50 [3]: 12 nM | IC50 [4]: 11 nM | IC50 [5]: 126 nM | IC50 [6]: 3 nM

Compound: C#Cc1c(F)ccc2cc(O)cc(-c3ncc4c(N5CCOCC(CC#N)C5)nc(OC[C@]56CCC[C@H]5N(C)CCC6)nc4c3F)c12 (single isomer, unassigned) [Example 1-130]
IC50 [1]: 2 nM | IC50 [2]: 2 nM

Compound: C#Cc1c(F)ccc2cc(O)cc(-c3ncc4c(N5CCOCCC5C)nc(OC[C@]56CCC[C@H]5N(C)CCC6)nc4c3F)c12 (single isomer, unassigned) [Example 1-142]
IC50 [1]: 560 nM

Compound: C#Cc1c(F)ccc2cc(O)cc(-c3ccc4c(N5CCCC(C#N)C5)nc(OC[C@@]56CCCN5C[C@H](F)C6)nc4c3F)c12 (single isomer, unassigned) [Example 2-41]
IC50 [1]: 680 nM

Compound: C#Cc1c(F)ccc2cc(O)cc(-c3ncc4c(N5C[C@@H](C)O[C@@H](C)C5)nc(OC[C@]56CCC[C@H]5N(C)CCC6)nc4c3F)c12 [Example 1-12, 4-(2-{[(4aS,7aR)-1-methyl-octahydro-1H-cyclopenta[b]pyridin-4a-yl]methoxy}-4-[(2R,6S)-2,6-dimethylmorpholin-4-yl]-8-fluoropyrido[4,3-d]pyrimidin-7-yl)-5-ethynyl-6-fluoronaphthalen-2-ol]
IC50 [1]: 1000 nM | IC50 [2]: < 2 nM

Compound: C#Cc1c(F)ccc2cc(O)cc(-c3ncc4c(N5C[C@H]6C[C@@H]5CO6)nc(OC[C@@]56CCCN5C[C@H](F)C6)nc4c3F)c12 [Example 1-37, 4-(2-{[(2R,7aS)-2-fluoro-hexahydro-1H-pyrrolizin-7a-yl]methoxy}-8-fluoro-4-[(1R,4R)-2-oxa-5-azabicyclo[2.2.1]heptan-5-yl]pyrido[4,3-d]pyrimidin-7-yl)-5-ethynyl-6-fluoronaphthalen-2-ol]
IC50 [3]: 10.5 nM | IC50 [4]: 16.6 nM | IC50 [5]: 54.5 nM

Compound: C#Cc1c(F)ccc2cc(O)cc(-c3ncc4c(N5CCOCCC5C)nc(OC[C@]56CCC[C@H]5N(C)CCC6)nc4c3F)c12 (stereo partly drawn) [Example 1-93, 4-(2-{[(4aS,7aR)-1-methyl-octahydro-1H-cyclopenta [b]pyridin-4a-yl]methoxy}-8-fluoro-4-(5-methyl-1,4-oxazepan-4-yl)pyrido[4,3-d]pyrimidin-7-yl)-5-ethynyl-6-fluoronaphthalen-2-ol]
IC50 [1]: 190 nM

Compound: C#Cc1c(F)ccc2cc(O)cc(-c3ncc4c(N5CCCOCC5)nc(OC[C@@]56C[C@@H](F)CN5CC5(CC5)C6)nc4c3F)c12 [Example 1-106, 4-(2-{[(6′R,7′aR)-6′-fluoro-hexahydrospiro [cyclopropane-1,2′-pyrrolizine]-7′a-yl]methoxy}-8-fluoro-4-(1,4-oxazepan-4-yl)pyrido[4,3-d]pyrimidin-7-yl)-5-ethynyl-6-fluoronaphthalen-2-ol]
IC50 [1]: 10 nM | IC50 [2]: 10 nM

Compound: C#Cc1c(F)ccc2cc(O)cc(-c3ccc4c(N5CC6C(C5)C6(C)C)nc(OC[C@@]56CCCN5C[C@H](F)C6)nc4c3F)c12 (stereo partly drawn) [Example 2-11, 4-(2-{[(2R,7aS)-2-fluoro-hexahydro-1H-pyrrolizin-7a-yl]methoxy}-4-{6,6-dimethyl-3-azabicyclo[3.1.0]hexan-3-yl}-8-fluoroquinazolin-7-yl)-5-ethynyl-6-fluoronaphthalen-2-ol]
IC50 [1]: 2620 nM | IC50 [2]: 2610 nM

Compound: C#Cc1c(F)ccc2cc(O)cc(-c3ccc4c(N5CCC(S(=O)(=O)N(C)C)CC5)nc(OC[C@@]56CCCN5C[C@H](F)C6)nc4c3F)c12 [Example 2-19, 1-(2-{[(2R,7aS)-2-fluoro-hexahydro-1H-pyrrolizin-7a-yl]methoxy}-7-(8-ethynyl-7-fluoro-3-hydroxynaphthalen-1-yl)-8-fluoroquinazolin-4-yl)-N,N-dimethylpiperidine-4-sulfonamide]
IC50 [1]: > 100000 nM | IC50 [2]: 2390 nM

Compound: C#Cc1c(F)ccc2cc(O)cc(-c3ccc4c(N5CC6CCC(C5)N6C(=O)C5CC(F)(F)C5)nc(OC[C@@]56CCCN5C[C@H](F)C6)nc4c3F)c12 [Example 7-4, 4-(2-{[(2R,7aS)-2-fluoro-hexahydro-1H-pyrrolizin-7a-yl]methoxy}-4-[8-(3,3-difluorocyclobutanecarbonyl)-3,8-diazabicyclo[3.2.1]octan-3-yl]-8-fluoroquinazolin-7-yl)-5-ethynyl-6-fluoronaphthalen-2-ol]
IC50 [1]: 6600 nM | IC50 [2]: < 2 nM
